{"source": "patent US7425418B2", "about": "“Compounds that modulate processes associated with IgE production” (Rigel Pharmaceuticals, Inc., priority 2002, dated 2008)", "molecules": {"B1": {"name": "peptide CL06LC (MSAASYAHSYAA) (peptide)", "peptide": "MSAASYAHSYAA", "notes": "Dual alanine mutant of CL06wt (L, C to A, A); Yeast two-hybrid bait fusion and BFP fusion as for CL06wt"}, "B2": {"name": "peptide CL06SY1 (MSLCAAAHSYAA) (peptide)", "peptide": "MSLCAAAHSYAA", "notes": "Dual alanine mutant of CL06wt (first S, Y to A, A); Yeast two-hybrid bait fusion and BFP fusion as for CL06wt"}}, "key": {"[1]": {"test_system": "germline ε promoter (A5T4 reporter line)", "test": "Retinoids contacted with IL-4 stimulated A5T4 reporter cells, inhibition of germline ε transcription", "assay_type": "cell-based, human", "settings": "0.03 μM, 0.3 μM, 3 μM and 30 μM, FIG. 12", "method": "IL-4 stimulated A5T4 reporter cells were contacted with varying concentrations of retinoids a-tRA, 13-cRA and 9-cRA (0.03 μM, 0.3 μM, 3 μM and 30 μM) as assessed for inhibition of germline ε transcription. DMSO and a compound known to inhibit germline ε transcription were tested as controls."}, "IgE production": {"test_system": "IgE production", "settings": "in vitro assays, literature; cited from earlier work"}, "germline ε transcription": {"test_system": "germline ε transcription", "settings": "in vitro assays, literature; cited from earlier work"}, "human RXR-β (hRXR-β)": {"target": "T1, human RXR-β (hRXR-β) (Homo sapiens, UniProt P28702)", "T1 construct": "expressed in transfected cells; prey cDNA from a library of the A5T4 reporter cell line (BJAB B-cells)", "T1 sequence (P28702 1-533)": "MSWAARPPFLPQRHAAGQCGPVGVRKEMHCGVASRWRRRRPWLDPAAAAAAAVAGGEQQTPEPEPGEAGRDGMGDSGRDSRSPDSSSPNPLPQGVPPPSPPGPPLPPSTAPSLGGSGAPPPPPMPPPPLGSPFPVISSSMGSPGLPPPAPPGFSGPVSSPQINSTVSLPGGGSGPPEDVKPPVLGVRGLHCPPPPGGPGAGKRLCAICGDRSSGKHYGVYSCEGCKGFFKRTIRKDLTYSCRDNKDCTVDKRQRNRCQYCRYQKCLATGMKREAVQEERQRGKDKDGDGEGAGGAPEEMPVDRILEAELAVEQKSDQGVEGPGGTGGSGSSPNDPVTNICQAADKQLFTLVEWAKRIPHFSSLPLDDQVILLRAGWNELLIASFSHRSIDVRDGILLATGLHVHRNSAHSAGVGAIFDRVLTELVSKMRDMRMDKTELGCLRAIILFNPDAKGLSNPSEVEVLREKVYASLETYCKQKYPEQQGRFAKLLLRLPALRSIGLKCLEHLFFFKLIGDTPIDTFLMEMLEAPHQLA", "test": "β-galactosidase yeast two-hybrid (YTH) interaction assay", "assay_type": "binding", "method": "Potential binding partners for peptide CL06wt were identified in a β-galactosidase yeast two-hybrid (YTH) assay using peptide CL06wt as bait and a cDNA library constructed from the A5T4 reporter cell line as prey. Binding was assessed by β-galactosidase quantification using BetaFluor (Novagen) as a substrate. A negative interaction control (no cDNA fused downstream of the GAL4 activation domain sequence) was also run. A general outline of the YTH assay is illustrated in FIG. 5A. Following clustering, filtering to remove non-specific bait hits (e.g., GFP and BFP), singletons and clusters recognized by 10 or more cDNA baits (based upon historical YTH assays), and prioritization, four prey clones were identified as hits, designated CL06-nonstim-7, CL06-stim-14, CL06-stim-15 and CL06-stim-2.\nThe interaction of CL06wt peptide and its mutants with the clones identified as potential targets for the peptide CL06wt was then quantified in a β-galactosidase YTH assay. The YTH assay was performed in the manner described above. A general outline of this YTH assay is illustrated in FIG. 5B. […]\nThe interaction of these IOF and LOF mutants with different polypeptides encoded by the clones CL06-nonstim-7, CL06-stim-14, CL06-stim-15 and CL06-stim-2 were quantified using the YTH assay described above. […]"}, "[2]": {"test_system": "IL-4 inducible germline ε promoter (A5T4 reporter cell line)", "test": "A5T4 reporter line screening assay: IL-4 induced germline ε promoter driving HBEGF2a/GFP reporter, peptide expressed retrovirally as BFP fusion, FACS", "assay_type": "cell-based, human", "settings": "mutants categorised relative to CL06wt", "text": "Peptide CL06wt was identified by screening a retroviral library of random peptide 20-mers for the ability to inhibit IL-4 induced germline ε transcription using the HBEGF2a/diphtheria dual reporter phenotypic screening system described in WO 01/31232. To construct the random library, A5T4 reporter cells (described in more detail below) were infected with an infectious retroviral library of random peptide 20-mers (prepared as described in WO 97/27213; see also WO 01/34806 at page 39, line 36 through page 40, line 19). The retroviral vector used includes a gene encoding blue fluorescent protein (BFP) fused upstream of the region encoding the random peptide via a linker region encoding an α-helical peptide linker (expression fusion product is referred to as “BFP-peptide”). Expression of the BFP-peptide product is controlled by a promoter sensitive to the tetracyline-regulated transactivator such that expression of the BFP-peptide regulated by tetracycline (Tet) or doxycycline (Dox). […]\nFollowing infection, the library was enriched for cells expressing peptides that inhibit IL-4 induced ε transcription as generally outlined in the top half of FIG. 3 and sorted by FACS into single cell clones. […] After 5 days, both populations were stimulated with IL-4 (final conc. 60 U/mL; PeptroTech, Inc.) and, after 3 more days, both populations were analyzed by FACS to measure BFP and GFP fluorescence. […]"}, "[3]": {"test_system": "ST486 endogenous α promoter", "test": "TAQMAN assay of endogenous germline α promoter transcription in TGF-β stimulated ST486 cells", "assay_type": "cell-based", "settings": "TGF-β 40 ng/ml, average of 3 values, p=0.6867", "method": "The ability of peptide CL06wt to inhibit transcription of an endogenous germline ε promoter was confirmed using a TAQMAN® assay (Roche Molecular, Alameda, Calif.). Briefly, A5T4 cells were infected with retrovirus capable of expressing peptide CL06wt (prepared as described above). The cells were sorted for BFP^+ to select for infected cells. Infected cells were divided into two populations. One population was exposed to Dox (10 ng/ml). Both populations were stimulated with IL-4 (60 U/ml). After 3 days, the cells were pelleted and the pellets assayed for ε promoter transcription using a TAQMAN assay performed as described in Applied Biosystems Protocol 4310299 (available at http:www.appliedbiosystems.com). The primers and probe, which are specific for the transcription product driven by the A5T4 endogenous ε promoter, were as follows (the probe was labeled at the 5′-end with Fam and at the 3′-end with Tamra):\nThe assay was similar to that described in the immediately preceding section, except that ST486 cells (ATCC # CRL-1647) engineered to express the tetracycline-regulated transactivator were infected and the infected cells were stimulated with TGF-β (40 ng/ml; Peprotech). The primers and probe, which are specific for the transcription product driven by the ST486 endogenous α promoter, were as follows (the probe was labeled at the 5′-end with Fam and at the 3′-end with Tamra): […]"}, "[4]": {"target": "T2, human retinoid X receptor beta (polypeptide encoded by prey clone CL06-stim-2) (human, UniProt P28702 1-533, limits assumed)", "T2 sequence (looked up)": "T1 sequence (P28702 1-533)", "test": "cell-based or functional assay"}, "[5]": {"target": "T2, human retinoid X receptor beta …", "test": "beta-galactosidase yeast two-hybrid; CL06LC is a loss of function (L) mutant, hence category L (loss of interaction) with CL06-stim-2"}, "[6]": {"target": "T2, human retinoid X receptor beta …", "test": "beta-galactosidase yeast two-hybrid; CL06SY1 is a loss of function (L) mutant, hence category L (loss of interaction) with CL06-stim-2"}, "[7]": {"target": "T2, human retinoid X receptor beta …", "test": "cell-based or functional assay", "remark": "listed apart in the source"}}, "data": [{"molecule": "CC1=C(/C=C/C(C)=C\\C=C\\C(C)=C\\C(=O)O)C(C)(C)CCC1", "note": "[Peptide 9-cRA, 9-cis RA]", "values": [{"measurement": "inhibition of germline ε transcription", "setting": "[1]", "value": "inhibited germline ε transcription in a dose-dependent manner"}]}, {"molecule": "CC1=C(/C=C/C(C)=C/C=C/C(C)=C\\C(=O)O)C(C)(C)CCC1", "note": "[Peptide 13-cRA, 13-cis-RA]", "values": [{"measurement": "inhibition of germline ε transcription", "setting": "[1]", "value": "inhibited germline ε transcription in a dose-dependent manner"}, {"measurement": "inhibition of IgE production", "setting": "IgE production", "value": "inhibit both IgE production and germline ε transcription in a dose-dependent manner"}, {"measurement": "inhibition of germline ε transcription", "setting": "germline ε transcription", "value": "inhibit both IgE production and germline ε transcription in a dose-dependent manner"}]}, {"molecule": "CC1=C(/C=C/C(C)=C/C=C/C(C)=C/C(=O)O)C(C)(C)CCC1", "note": "[a-tRA, all-trans RA]", "values": [{"measurement": "inhibition of germline ε transcription", "setting": "[1]", "value": "inhibited germline ε transcription in a dose-dependent manner"}, {"measurement": "inhibition of IgE production", "setting": "IgE production", "value": "inhibit both IgE production and germline ε transcription in a dose-dependent manner"}, {"measurement": "inhibition of germline ε transcription", "setting": "germline ε transcription", "value": "inhibit both IgE production and germline ε transcription in a dose-dependent manner"}]}, {"molecule": "AALCSYAHSYAA [CL06MS, dual alanine mutant of CL06wt]", "values": [{"measurement": "binding to hRXR-β in yeast two hybrid interaction assay", "setting": "human RXR-β (hRXR-β)", "value": "found to bind"}, {"measurement": "functional category based on reporter ratio", "setting": "[2]", "value": "IOF (An increase of function mutant (IOF) shows a >50% increase in reporter function)"}]}, {"molecule": "MSLCSYAHSYAA [CL06wt, 12-residue peptide identified from a retroviral random peptide library, expressed as BFP-peptide fusion]", "values": [{"measurement": "binding to hRXR-β in yeast two hybrid interaction assay", "setting": "human RXR-β (hRXR-β)", "value": "found to bind"}, {"measurement": "endogenous a inhibition ratio", "setting": "[3]", "value": 0.93}]}, {"molecule": "B1", "values": [{"measurement": "Reporter Ratio (A5T4 reporter line, IL-4 induced germline ε transcription)", "setting": "[4]", "value": 1.06}, {"measurement": "binding result", "setting": "[5]", "value": "no binding"}]}, {"molecule": "AALCSYAHSYAA", "note": "[peptide CL06MS (AALCSYAHSYAA)]", "values": [{"measurement": "Reporter Ratio (A5T4 reporter line, IL-4 induced germline ε transcription)", "setting": "[4]", "value": 1.56}]}, {"molecule": "B2", "values": [{"measurement": "Reporter Ratio (A5T4 reporter line, IL-4 induced germline ε transcription)", "setting": "[4]", "value": 1.09}, {"measurement": "binding result", "setting": "[6]", "value": "no binding"}]}, {"molecule": "MSLCSYAHSYAA", "note": "[peptide CL06wt (MSLCSYAHSYAA)]", "values": [{"measurement": "Reporter Ratio (A5T4 reporter line, IL-4 induced germline ε transcription)", "setting": "[4]", "value": 1.3}, {"measurement": "endogenous ε inhibition ratio (TAQMAN assay, +IL-4/-Dox to +IL-4/+Dox)", "setting": "[7]", "value": 1.37}]}]}
